Source: paper PMC7156724, “Potent BRD4 inhibitor suppresses cancer cell-macrophage interaction” (Nature Communications, 2020)
Values joined by “and” are separate entries in the source; they are usually repeats but may differ in a detail not shown here. Equal entries are not always repeated. Each block holds one molecule with its values, some of them ahead of it.

Tests used:
[1] = tested on: A375 melanoma cells; assay: AlamarBlue assay, A375; format: cell-based, human; details: for Cellular activity in melanoma cells (A375), alamarBlue: Fig.1g, replicates
Method: 3. AlamarBlue assay. AlamarBlue was made by resazurin sodium salt (Sigma, Cat
# 199303) dissolved in PBS.
NCI-H211, MDA-MB231 and A375 cells were plated in 96-well plates at approximately 30% confluence and left overnight to adhere. In the following day, […]
of treatment, 10 μl AlamarBlue reagent (0.3 mg/ml) was added to each well, and after 18h, the florescence intensity in each well was measured using a top-reading fluorescent plate reader with excitation at 530 nm and emission at 590 nm. […]

[2] = tested on: HIF1 reporter activity; assay: HIF1 luciferase reporter assay; format: cell-based, human; details: A2780 and A375 cells, 20% or 1% O2, 24 h
Method: Fig. 7 NHWD-870 inhibited CSF1 expression through suppressing BRD4 and HIF1α in tumor cells. a, b Representative western blot analysis of control (Ctrl) and BRD4 knockout (KO) A375 and A2780 cells exposed to 20% or 1% O2 for 24 hours. Selected from three independent experiments. c, d Representative western blot analysis of A375 and A2780 cells treated with DMSO or 25 nM NHWD-870 and exposed to 20% or 1% O2 for 24 h. Selected from three independent experiments. e Relative HIF1 luciferase reporter activity in control (Ctrl), BRD4 knockout (KO), or NHWD-870 treated A375 and A2780 cells exposed to 20% or 1% O2 for 24 h. Data are presented as mean ± SEM from three independent experiments. f RT-qPCR analyses of CSF1 in control (Ctrl), BRD4 knockout (KO), or NHWD-870 treated A375 and A2780 cells exposed to 20% or 1% O2 for 24 hours. Data are presented as mean ± SEM from three independent experiments. g RT-qPCR analyses of HIF1A in A375 or A2780 cells treated with 15 nM NHWD-870 or DMSO control for 24 h. Data are presented as mean ± SEM from three independent experiments. h Genome browser view of BRD4 ChIP-seq peaks on the HIF1A promoter. Shown are BRD4 ChIP and input control of A375 cells (top panel) and BRD4 ChIP of MDA-MB231 cells treated with DMSO or JQ-1 (bottom panel). i BRD4 ChIP-qPCR analyses of the HIF1A promoter in A2780 cells treated with DMSO or NHWD-870 for 72 h. Data are presented as mean ± SEM from three independent experiments. j RT-qPCR analyses of CSF1 in A375 and A2780 cells were transiently transduced with HIF1α, then exposed to 1% O2 for 24 h. Ctrl, Control. Data are presented as mean ± SEM from three independent experiments. k A model showing the effects of NHWD-870 on cancer cell-TAM interaction. NHWD-870 inhibits the proliferation and survival of TAMs partly by inhibiting BRD4 activity, HIF1α expression, and CSF1 secretion by tumor cells, and downregulating CSF1R mediated ERK and PI3K/AKT signaling in TAMs. p values were calculated using two-tailed, unpaired t tests in this figure. *p < 0.05; **p < 0.01; ***p < 0.001. Source data are provided as a Source Data file.
Supplementary Figure 15. […]
Data in (a) and (c-e) are presented as mean ± SEM from 3 independent experiments. p values were calculated using two-tailed, unpaired t tests. **, p<0.01; ***, p<0.001. Source data are provided as a Source […]
All patients had […]
undergone complete cytoreductive surgery.
14. Immunohistochemical staining. Paraffin-embedded implantation samples isolated from peritoneal metastasis of EOC patients (128 cases) were sectioned at a thickness of 4μm. To stain CD68, CSF1 and p-BRD4, the slides were first deparaffinized in xylene and rehydrated with gradient concentrations of alcohol under standard procedures. After rehydration, the slides were immersed in 0.01 mol/L citrate buffer (pH 6.0) and heated (95°C) for 15 min for antigen retrieval.
Then, the samples were incubated with 3% hydrogen peroxide (H2O2) for 10 minutes followed by 10% normal goat serum blocking for 10 minutes. Subsequently, the sections were incubated with rabbit polyclonal anti-human CD68 antibody (dilution 1:100) (sc-20060, Santa Cruz Biotechnology) and anti-human p-BRD4

[3] = tested on: human melanoma patient-derived xenograft (PDX); assay: Human melanoma patient-derived xenograft (PDX) tumor growth; format: in vivo, NSG mice; details: Fig.3f, 1.5mg/kg, individual animals, in mm³ (unit assumed)
Source text: PO, oral administration; QD, once daily; BID, twice daily. b–d Tumor growth curves for A2780 ovarian tumor (n = 5) (b), TMD8 large B cell lymphoma (n = 6) (c), and B16F10 melanoma (n = 5) (d) bearing mice treated with the indicated compounds once daily for 11-21 days. e, f Tumor growth curves for A375 melanoma (n = 6) (e), and patient-derived xenograft (PDX) of melanoma (n = 5) (f) bearing mice treated with the indicated compounds once daily (5 days on, 2 days off) for 21 days. For d–f, NHWD-870 used is NHWD-870-HCl synthesized using Suzuki coupling route. Data are presented as mean ± SEM in (a, b, d, f) and mean + SEM in (c, e). p values were calculated using two-tailed, unpaired t tests. *p < 0.05; **p < 0.01; ***p < 0.001. Source data are provided as a Source Data file.
4–6 weeks old female BALB/c nude mice were used for most experiments, with the exception of 6–8 weeks old female C57BL/6 mice were used for B16F10 experiments, and 6–8 weeks old male BALB/c nude mice and SD rats were used for pharmacokinetic experiments. All animals were purchased from Shanghai SIPPR-Bk Lab Animal Co., Ltd. All animals were housed under a regimen of 12 h light/12 h dark cycles and specific pathogen-free conditions. 5×10^6 NCI-H526, ES-2, MDA-MB231, A2780, A375, B16F10, and TMD-8 cells (0.1 ml) were injected subcutaneously into female nude mice. The melanoma patient-derived xenograft model was derived from a human melanoma sample (BRAF, NARS and NF1 wild type, and p53 mutant) removed from a patient in Xiangya Hospital. Surgically removed tumor fragments were implanted subcutaneously into female NSG mice. When the tumors grew to ~1000 mm^3, they were harvested and cryopreserved or immediately re-implanted for expansion or experiments. Mouse body weight and tumor sizes were measured every 3 days. Once the tumors grew to 150–200 mm^3, mice were treated with the compounds as described in the Figures. 1 × 10^6 A2780 cells (1 ml) were injected into the abdominal cavity of nude mice. Ascitic volume and tumor weight were measured by an electronic balance. All the procedures were evaluated and approved by the Institutional Animal Care and Use Committee of Central South University and Yale University.

[4] = tested on: TAMs; assay: Transwell co-culture of pretreated A2780 cells and TAMs with CSF1 or anti-CSF1R antibodies; format: cell-based, mouse; details: co-culture with pretreated A2780 cells, MCSF-1 10ng/ml where added
Method: Fig. 6 CSF1/CSF1R signaling is critical for the tumor inhibitory effects of NHWD-870 and CSF1 induced ovarian cancer growth depends on macrophages. a Number of TAMs after treatment with the indicated concentration of CSF1 for 48 h. Data are presented as mean ± SEM from three independent experiments. b–d Schematics of the experiments (b). A2780 cells (pre-treated with DMSO or 100 nM NHWD-870 for 48 h) were seeded into the top chamber (transwell size: 0.4 μm), and TAMs (Mac, 40,000 cells per 24-well) in medium with PBS or 10 ng/ml CSF1 (c), or 50 ng/ml IgG or anti-CSF1R antibodies (d), were seeded into the bottom chamber. Shown are quantification of TAMs (c, d). Data are presented as mean ± SEM from three independent experiments. e Representative western blot analysis of A2780 cells stably transfected with CSF1 or empty vector (EV). Selected from three independent experiments. f Schematics of the animal experiments using an orthotopic mouse OC model, established by intraperitoneally injecting 1 × 10^6 (g–j) or 2 × 10^6 (k–m) human A2780 cells overexpressing CSF1 or control into female recipient nude mice. Mice were then treated with/without liposomal clodronate (LC) for 45 days (g–j) or treated with/without NHWD-870 (PO, QD, 3 mg/kg) for 37 days (k–m). g Increased mouse body weight was measured at the indicated time points (day 0-45 after LC treatment). h–j Net tumor weight (h), ascitic fluid volumes (i) tumor implantations in peritoneum, omentum and pevic cavity (j) were measured at day 45 from LC treatment. k–m Net tumor weight (k), ascitic fluid volumes (l) tumor implantations in peritoneum, omentum and pevic cavity (m) were measured at day 37 after NHWD-870 treatment. For g–m, data are presented as mean ± SEM from five different mice. p values were calculated using two-tailed, unpaired t tests in this figure. n.s, not significant; *p < 0.05; **p < 0.01; and ***p < 0.001. Source data are provided as a Source Data file.
CD45^+CD11b^+F4/80^+ TAMs were isolated from peritoneal metastasis of A2780 tumor-bearing mice and cultured in RPMI-1640 supplemented with 10% FBS, 1% penicillin/streptomycin, and 0–50 ng/ml CSF1 (R&D Systems) as indicated according to standard protocols. In the cancer cell-macrophage co-culture experiments, CSF1 was not added. In the transwell (Corning, pore size, 0.4 μm) co-culture experiments, tumor cells were placed into the upper chamber, and TAMs were seeded into the lower chamber.

IC50 ([1]; Homo sapiens, A-375, nM printed in b8, the picture prints no unit, read-out: IC50, cellular activity in A375 (alamarBlue)): 34.8 nM
Molecule: Cc1sc2c(c1C)C(c1ccc(Cl)cc1)=N[C@@H](CC(=O)Nc1ccc(O)cc1)c1nnc(C)n1-2 [OTX-015]
Cellular activity in melanoma cells (A375), alamarBlue ([1]; concentration(nM) 0.21442): 0.2687 and 0.138
Cellular activity in melanoma cells (A375), alamarBlue ([1]; concentration(nM) 0.31236): 1.399 and 1.862
Cellular activity in melanoma cells (A375), alamarBlue ([1]; concentration(nM) 0.4103): 3 and 0.4387
Cellular activity in melanoma cells (A375), alamarBlue ([1]; concentration(nM) 0.6032): 12.3903 and 10.5044
Cellular activity in melanoma cells (A375), alamarBlue ([1]; concentration(nM) 1.2043): 24.9941 and 17.1565
Cellular activity in melanoma cells (A375), alamarBlue ([1]; concentration(nM) 1.8024): 69.0356 and 72.751
Cellular activity in melanoma cells (A375), alamarBlue ([1]; concentration(nM) 2.4): 91.1738 and 98.6047
Cellular activity in melanoma cells (A375), alamarBlue ([1]; concentration(nM) 3): 100.838 and 100.296
HIF1 reporter activity [2]: significantly decreased HIF1 reporter activity

Molecule: Cc1nnn(C)c1-c1cnc2c3c4cnn(C)c4ccc3n([C@H](c3ccccc3)C3CCOCC3)c2c1.Cl [870-HCI]
Tumor volume ([3]; day 0): 0
Tumor volume ([3]; day 3): 76 and 83 and 79 and 110 and 130
Tumor volume ([3]; day 7): 143 and 132 and 174 and 201 and 230
Tumor volume ([3]; day 11): 195 and 185 and 250 and 289 and 310
Tumor volume ([3]; day 15): 264 and 276 and 364 and 396 and 423
Tumor volume ([3]; day 19): 349 and 303 and 474 and 530 and 503
Tumor volume ([3]; day 21): 425 and 403 and 503 and 684 and 603

B1: MCSF-1 (protein, UniProt P09603 33-554, looked up)
Macrophage colony-stimulating …: EEVSEYCSHMIGSGHLQSLQRLIDSQMETSCQITFEFVDQEQLKDPVCYLKKAFLLVQDIMEDTMRFRDNTPNAIAIVQLQELSLRLKSCFTKDYEEHDKACVRTFYETPLQLLEKVKNVFNETKNLLDKDWNIFSKNCNNSFAECSSQDVVTKPDCNCLYPKAIPSSDPASVSPHQPLAPSMAPVAGLTWEDSEGTEGSSLLPGEQPLHTVDPGSAKQRPPRSTCQSFEPPETPVVKDSTIGGSPQPRPSVGAFNPGMEDILDSAMGTNWVPEEASGEASEIPVPQGTELSPSRPGGGSMQTEPARPSNFLSASSPLPASAKGQQPADVTGTALPRVGPVRPTGQDWNHTPQKTDHPSALLRDPPEPGSPRISSLRPQGLSNPSTLSAQPQLSRSHSSGSVLPLGELEGRRSTRDRRSPAEPEGGPASEGAARPLPRFNSVPLTDTGHERQSEGSFSPQLQESVFHLLVPSVILVLLAVGGLLFYRWRRRSHQEPQRADSPLEQPEGSPLTQDDRQVELPV
Number of TAMs (Fig.6c) ([4]; time 0): 5
Number of TAMs (Fig.6c) ([4]; time 24): 6.1 and 7 and 6.4
Number of TAMs (Fig.6c) ([4]; time 48): 18.4 and 16.8 and 17.9
Number of TAMs (Fig.6c) ([4]; time 72): 34.1 and 29.5 and 32.5
